Data as given in the NIST ThermoML archive (doi:10.1021/acs.jced.8b01120).

Assay: xn = mol fraction of the nth substance listed
Settings: 100 kPa, Liquid; for speed of sound: Single path-length method; for mass density: Vibrating tube method

CCCCN(CCCC)CCCC [tributylamine] + CCCCOC(C)=O
Settings	mass density, 293.15 K [kg/m3]	mass density, 298.15 K [kg/m3]	mass density, 303.15 K [kg/m3]	mass density, 308.15 K [kg/m3]	mass density, 313.15 K [kg/m3]	speed of sound, 293.15 K [m/s]	speed of sound, 298.15 K [m/s]	speed of sound, 303.15 K [m/s]	speed of sound, 308.15 K [m/s]	speed of sound, 313.15 K [m/s]
x1 = 0.0535	870.397	865.288	860.118	854.99	849.73	1214	1193.8	1175.2	1156	1132.7
x1 = 0.11	859.603	854.617	849.591	844.604	839.544	1217.1	1196.9	1178.2	1158.9	1135.7
x1 = 0.2003	844.278	839.544	834.725	829.963	825.128	1221.8	1201.9	1183.5	1163.8	1141.7
x1 = 0.3239	827.789	823.24	818.635	814.11	809.428	1228.3	1208.9	1189.5	1170.4	1148.8
x1 = 0.4004	818.98	814.604	810.171	805.768	801.312	1232.5	1212.3	1193.6	1174.4	1153.5
x1 = 0.502	809.109	804.828	800.541	796.282	791.968	1237.7	1217.4	1199.2	1180.1	1158.9
x1 = 0.592	801.571	797.439	793.26	789.105	784.862	1242.4	1222.7	1203.4	1185.3	1164.7
x1 = 0.7201	792.16	788.147	784.362	780.344	775.931	1249.1	1229.7	1210.9	1192	1171.8
x1 = 0.8002	787.449	783.513	779.542	775.588	771.559	1253.5	1233.7	1215	1195.9	1176.6
x1 = 0.9065	781.614	777.793	773.938	770.069	766.156	1259.1	1240	1220.6	1201.7	1183.1
x1 = 1	777.006	773.28	769.552	765.811	762.061	1264.2	1245.2	1226.2	1207.4	1188.8

CCCCN(CCCC)CCCC [tributylamine] + CCOC(C)=O
Settings	mass density, 293.15 K [kg/m3]	mass density, 298.15 K [kg/m3]	mass density, 303.15 K [kg/m3]	mass density, 308.15 K [kg/m3]	mass density, 313.15 K [kg/m3]	speed of sound, 293.15 K [m/s]	speed of sound, 298.15 K [m/s]	speed of sound, 303.15 K [m/s]	speed of sound, 308.15 K [m/s]	speed of sound, 313.15 K [m/s]
x1 = 0.0502	886.034	880.238	874.248	868.137	862.077	1168.6	1146.5	1124.6	1102.3	1080.9
x1 = 0.104	872.134	866.571	860.881	854.773	848.939	1172.6	1152.6	1129.9	1108.7	1088.3
x1 = 0.2041	850.473	845.352	840.168	834.885	829.51	1182.8	1162.8	1140.7	1119.9	1098.8
x1 = 0.3022	834.126	829.336	824.418	819.471	814.442	1193.2	1172.8	1151.3	1131.6	1109.3
x1 = 0.402	820.855	816.274	811.568	806.892	802.143	1203.3	1182.8	1161.7	1141.7	1120.9
x1 = 0.5017	810.036	805.655	801.215	796.734	792.21	1213.4	1194	1172.7	1152.9	1132.9
x1 = 0.6003	801.163	796.948	792.639	788.358	784.016	1223	1203.8	1182.3	1163.6	1143.3
x1 = 0.7004	793.656	789.584	785.465	781.294	777.107	1233.6	1214.6	1193.2	1174.6	1154.3
x1 = 0.8009	787.308	783.362	779.404	775.399	771.342	1244	1224.7	1205.4	1185.6	1166.1
x1 = 0.9011	781.785	777.942	774.089	770.192	766.343	1253.8	1234.6	1215.4	1196.5	1177.7
x1 = 1	777.006	773.283	769.552	765.811	762.061	1264.2	1245.2	1226.2	1207.4	1188.8

CCCCCOC(C)=O [pentyl ethanoate] + CCCCN(CCCC)CCCC
Settings	mass density, 293.15 K [kg/m3]	mass density, 298.15 K [kg/m3]	mass density, 303.15 K [kg/m3]	mass density, 308.15 K [kg/m3]	mass density, 313.15 K [kg/m3]	speed of sound, 293.15 K [m/s]	speed of sound, 298.15 K [m/s]	speed of sound, 303.15 K [m/s]	speed of sound, 308.15 K [m/s]	speed of sound, 313.15 K [m/s]
x2 = 0	876.248	871.32	865.782	860.581	855.357	1243	1220.7	1196.8	1174.2	1152.3
x2 = 0.0575	865.692	860.668	855.073	849.94	844.475	1244.2	1221.5	1197.8	1175.7	1153.7
x2 = 0.1106	856.436	851.526	846.117	841.075	835.813	1245.2	1222.5	1198.8	1177.2	1155.7
x2 = 0.2013	842.712	837.942	832.841	827.884	823.003	1247.7	1224.3	1201.8	1179.7	1158.8
x2 = 0.3229	827.693	823.116	818.312	813.425	808.951	1249.6	1227.8	1205.4	1184.1	1163.1
x2 = 0.4109	818.21	813.799	809.136	804.737	800.073	1251.4	1229.9	1207.8	1187.2	1167.2
x2 = 0.5032	809.565	805.278	800.772	796.389	791.981	1253.8	1232.5	1210.5	1190.4	1170
x2 = 0.6202	799.842	795.692	791.362	787.138	782.852	1255.6	1235	1214.6	1194.1	1174.1
x2 = 0.7403	791.114	787.079	782.913	778.804	774.698	1258.8	1238.5	1217.8	1198.2	1178.9
x2 = 0.8105	786.994	782.989	778.908	774.712	770.827	1259.7	1240.2	1219.9	1201	1181.2
x2 = 0.9205	780.619	776.717	772.741	768.959	764.799	1262.4	1243.1	1223	1204.5	1185.6
